Experimental data reported in PubChem BioAssay (NCI).
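Cultured in 96-well plates, cells were exposed to test compound for 48 hours across five concentrations. TGI: total growth inhibition.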

Assays:
Experiment in all cases: growth of human tumour cells (NCI), 48 h
RXF 393 renal = test system: RXF 393 renal
COLO 205 colon = test system: COLO 205 colon
OVCAR-3 ovarian = test system: OVCAR-3 ovarian
M14 melanoma = test system: M14 melanoma
SK-MEL-2 melanoma = test system: SK-MEL-2 melanoma
SR leukemia = test system: SR leukemia
CAKI-1 renal = test system: CAKI-1 renal
TK-10 renal = test system: TK-10 renal
MDA-MB-231 breast = test system: MDA-MB-231 breast
NCI-H226 lung = test system: NCI-H226 lung
SK-MEL-28 melanoma = test system: SK-MEL-28 melanoma
786-0 renal = test system: 786-0 renal
SN12C renal = test system: SN12C renal
SNB-19 CNS = test system: SNB-19 CNS
KM12 colon = test system: KM12 colon
UO-31 renal = test system: UO-31 renal
HL-60(TB) leukemia = test system: HL-60(TB) leukemia
OVCAR-4 ovarian = test system: OVCAR-4 ovarian
ACHN renal = test system: ACHN renal
SNB-75 CNS = test system: SNB-75 CNS
SF-268 CNS = test system: SF-268 CNS
K-562 leukemia = test system: K-562 leukemia
MCF7 breast = test system: MCF7 breast
MOLT-4 leukemia = test system: MOLT-4 leukemia
SF-295 CNS = test system: SF-295 CNS
NCI-H23 lung = test system: NCI-H23 lung
SW-620 colon = test system: SW-620 colon
UACC-257 melanoma = test system: UACC-257 melanoma
SK-MEL-5 melanoma = test system: SK-MEL-5 melanoma
HOP-92 NSCLC = test system: HOP-92 NSCLC
MALME-3M melanoma = test system: MALME-3M melanoma
BT-549 breast = test system: BT-549 breast
SF-539 CNS = test system: SF-539 CNS
DU-145 prostate = test system: DU-145 prostate
NCI/ADR-RES ovarian = test system: NCI/ADR-RES ovarian
HOP-62 NSCLC = test system: HOP-62 NSCLC
U251 CNS = test system: U251 CNS
MDA-MB-435 = test system: MDA-MB-435
SK-OV-3 ovarian = test system: SK-OV-3 ovarian
T-47D breast = test system: T-47D breast
EKVX NSCLC = test system: EKVX NSCLC
LOX IMVI melanoma = test system: LOX IMVI melanoma
HCT-116 colon = test system: HCT-116 colon
NCI-H522 lung = test system: NCI-H522 lung
HT29 colon = test system: HT29 colon
OVCAR-5 ovarian = test system: OVCAR-5 ovarian
IGROV1 ovarian = test system: IGROV1 ovarian
HS 578T breast = test system: HS 578T breast
HCT-15 colon = test system: HCT-15 colon
PC-3 prostate = test system: PC-3 prostate
OVCAR-8 ovarian = test system: OVCAR-8 ovarian
A549 NSCLC = test system: A549 NSCLC
NCI-H460 lung = test system: NCI-H460 lung
UACC-62 melanoma = test system: UACC-62 melanoma
CCRF-CEM leukemia = test system: CCRF-CEM leukemia
RPMI-8226 leukemia = test system: RPMI-8226 leukemia
HCC-2998 colon = test system: HCC-2998 colon

COc1ccc(C2=C(Cl)C(=O)N(c3ccc(OC)cc3OC)C(=O)C2(Cl)Cl)cc1
TGI (RXF 393 renal): 57 µM
TGI (COLO 205 colon): 39.4 µM
TGI (OVCAR-3 ovarian): 25 µM
TGI (M14 melanoma): 29.7 µM
TGI (SK-MEL-2 melanoma): 63.6 µM
TGI (SR leukemia): 36.4 µM
TGI (CAKI-1 renal): 25.2 µM
TGI (TK-10 renal): 37.7 µM
TGI (MDA-MB-231 breast): 20.5 µM
TGI (NCI-H226 lung): 27.1 µM
TGI (SK-MEL-28 melanoma): 36.1 µM
TGI (786-0 renal): 29 µM
TGI (SN12C renal): 13.8 µM
TGI (SNB-19 CNS): > 100 µM
TGI (KM12 colon): 33.6 µM
TGI (UO-31 renal): 37.4 µM
TGI (HL-60(TB) leukemia): 69.8 µM
TGI (OVCAR-4 ovarian): 32.2 µM
TGI (ACHN renal): 29.1 µM
TGI (SNB-75 CNS): 90.3 µM
TGI (SF-268 CNS): 65.9 µM
TGI (K-562 leukemia): > 100 µM
TGI (MCF7 breast): 64.7 µM
TGI (MOLT-4 leukemia): 74 µM
TGI (SF-295 CNS): 66.4 µM
TGI (NCI-H23 lung): 31 µM
TGI (SW-620 colon): 30.1 µM
TGI (UACC-257 melanoma): 39.3 µM
TGI (SK-MEL-5 melanoma): 28.1 µM
TGI (HOP-92 NSCLC): 36.6 µM
TGI (MALME-3M melanoma): 35.8 µM
TGI (BT-549 breast): 77.3 µM
TGI (SF-539 CNS): 23.5 µM
TGI (DU-145 prostate): 31 µM
TGI (NCI/ADR-RES ovarian): 41.9 µM
TGI (HOP-62 NSCLC): 36.9 µM
TGI (U251 CNS): 30.2 µM
TGI (MDA-MB-435): 34.4 µM
TGI (SK-OV-3 ovarian): > 100 µM
TGI (T-47D breast): 30.3 µM
TGI (EKVX NSCLC): 87.1 µM
TGI (LOX IMVI melanoma): 30.8 µM
TGI (HCT-116 colon): 28.9 µM
TGI (NCI-H522 lung): 36.5 µM
TGI (HT29 colon): 38.4 µM
TGI (OVCAR-5 ovarian): 27.6 µM
TGI (IGROV1 ovarian): 44.3 µM
TGI (HS 578T breast): 16.4 µM
TGI (HCT-15 colon): 27.9 µM
TGI (PC-3 prostate): 33.5 µM
TGI (OVCAR-8 ovarian): 52.4 µM
TGI (A549 NSCLC): > 100 µM
TGI (NCI-H460 lung): > 100 µM
TGI (UACC-62 melanoma): 28 µM

CC(=O)N1C(Nc2ccccc2)CCN1c1ccccc1 (stereo not drawn)
TGI (RXF 393 renal): > 10 µM
TGI (COLO 205 colon): > 10 µM
TGI (CCRF-CEM leukemia): > 10 µM
TGI (OVCAR-3 ovarian): > 10 µM
TGI (M14 melanoma): > 10 µM
TGI (SK-MEL-2 melanoma): > 10 µM
TGI (RPMI-8226 leukemia): > 10 µM
TGI (SR leukemia): > 10 µM
TGI (CAKI-1 renal): > 10 µM
TGI (TK-10 renal): > 10 µM
TGI (MDA-MB-231 breast): > 10 µM
TGI (NCI-H226 lung): > 10 µM
TGI (SK-MEL-28 melanoma): > 10 µM
TGI (786-0 renal): > 10 µM
TGI (SN12C renal): > 10 µM
TGI (SNB-19 CNS): > 10 µM
TGI (UO-31 renal): > 10 µM
TGI (HL-60(TB) leukemia): > 10 µM
TGI (OVCAR-4 ovarian): > 10 µM
TGI (ACHN renal): > 10 µM
TGI (SNB-75 CNS): > 10 µM
TGI (SF-268 CNS): > 10 µM
TGI (K-562 leukemia): > 10 µM
TGI (HCC-2998 colon): > 10 µM
TGI (MCF7 breast): > 10 µM
TGI (MOLT-4 leukemia): > 10 µM
TGI (SF-295 CNS): > 10 µM
TGI (NCI-H23 lung): > 10 µM
TGI (SW-620 colon): > 10 µM
TGI (UACC-257 melanoma): > 10 µM
TGI (SK-MEL-5 melanoma): > 10 µM
TGI (HOP-92 NSCLC): > 10 µM
TGI (MALME-3M melanoma): > 10 µM
TGI (BT-549 breast): > 10 µM
TGI (SF-539 CNS): > 10 µM
TGI (DU-145 prostate): > 10 µM
TGI (NCI/ADR-RES ovarian): > 10 µM
TGI (HOP-62 NSCLC): > 10 µM
TGI (MDA-MB-435): > 10 µM
TGI (SK-OV-3 ovarian): > 10 µM
TGI (T-47D breast): > 10 µM
TGI (EKVX NSCLC): > 10 µM
TGI (LOX IMVI melanoma): > 10 µM
TGI (HCT-116 colon): > 10 µM
TGI (NCI-H522 lung): > 10 µM
TGI (HT29 colon): > 10 µM
TGI (OVCAR-5 ovarian): > 10 µM
TGI (IGROV1 ovarian): > 10 µM
TGI (HS 578T breast): > 10 µM
TGI (HCT-15 colon): > 10 µM
TGI (PC-3 prostate): > 10 µM
TGI (OVCAR-8 ovarian): > 10 µM
TGI (A549 NSCLC): > 10 µM
TGI (NCI-H460 lung): > 10 µM
